From the NIST ThermoML archive (doi:10.1021/je060271a)

Conditions: 323.15 K, Liquid, Vibrating tube method

CCCCC(=O)OCC(COC(=O)CCCC)(COC(=O)CCCC)COC(=O)CCCC [pentaerythritol tetrapentanoate]
Conditions	mass density [kg/m3]
5507 kPa	998.5
5515.1 kPa	998.5
5521.3 kPa	998.4
5527 kPa	998.5
5546.7 kPa	998.6
5564 kPa	998.6
5581.9 kPa	998.5
5599.5 kPa	998.6
5620.8 kPa	998.5
5638.1 kPa	998.7
5660 kPa	998.6
5678.2 kPa	998.6
5695.6 kPa	998.6
5714.3 kPa	998.7
5736.6 kPa	998.6
5755.1 kPa	998.7
5774.3 kPa	998.6
5797.1 kPa	998.8
5816.3 kPa	998.9
5836 kPa	998.8
5854.9 kPa	998.8
5878.6 kPa	998.8
5898.5 kPa	998.8
5917.1 kPa	998.8
5937.2 kPa	998.9
5961 kPa	998.8
5982 kPa	998.9
6002.4 kPa	998.9
6023.3 kPa	998.8
6048 kPa	998.8
6068.6 kPa	999
6091.7 kPa	998.8
6114.3 kPa	999
6135.5 kPa	998.8
6162.7 kPa	998.9
6183.1 kPa	998.9
6205.3 kPa	999
6226.8 kPa	999.1
6253.6 kPa	999.1
6278.3 kPa	999
6299 kPa	999
6322 kPa	999.1
6349.8 kPa	999.1
6371.6 kPa	999.1
6395.8 kPa	999.1
6420.4 kPa	999
6446 kPa	999.2
6472.8 kPa	999.2
6495.8 kPa	999.3
6521.7 kPa	999.2
6549.3 kPa	999.2
6572.1 kPa	999.2
6596.7 kPa	999.3
6622.6 kPa	999.3
6652.8 kPa	999.2
6676.5 kPa	999.3
6703.4 kPa	999.2
6735.7 kPa	999.4
6761.8 kPa	999.4
6788.6 kPa	999.5
6816.1 kPa	999.4
6841.8 kPa	999.4
6873.6 kPa	999.5
6900.5 kPa	999.4
6928.9 kPa	999.6
6961.3 kPa	999.6
6989.5 kPa	999.5
7017 kPa	999.6
7044.4 kPa	999.4
7079.5 kPa	999.6
7110.4 kPa	999.7
7137.5 kPa	999.7
7169.3 kPa	999.6
7204.5 kPa	999.8
7233.8 kPa	999.7
7265.1 kPa	999.7
7295.5 kPa	999.8
7332.3 kPa	999.8
7362 kPa	999.7
7393.2 kPa	999.8
7425.1 kPa	999.9
7462.4 kPa	999.8
7497 kPa	1000
7529.6 kPa	999.9
7562.2 kPa	999.9
7602.1 kPa	1000
7634.4 kPa	999.9
7668.9 kPa	1000
7702.7 kPa	1000
7742.2 kPa	1000
7778.3 kPa	1000.1
7818.5 kPa	1000.1
7854.9 kPa	1000.1
7890.7 kPa	1000.1
8008.7 kPa	1000.2
8045.6 kPa	1000.3
8085.8 kPa	1000.3
8132.2 kPa	1000.2
8166 kPa	1000.4
8197.3 kPa	1000.4
8234.5 kPa	1000.4
8265.2 kPa	1000.4
8297.6 kPa	1000.5
8334.6 kPa	1000.5
8366.3 kPa	1000.6
8398.2 kPa	1000.5
8437.2 kPa	1000.5
8471.2 kPa	1000.5
8502.6 kPa	1000.5
8536.2 kPa	1000.6
8575.9 kPa	1000.5
8609.5 kPa	1000.6
8644.9 kPa	1000.7
8686.6 kPa	1000.7
8721.6 kPa	1000.7
8763.3 kPa	1000.7
8798.5 kPa	1000.8
8835.2 kPa	1000.8
8871.2 kPa	1000.7
8918.5 kPa	1000.9
8948.2 kPa	1000.9
8992.3 kPa	1000.9
9029 kPa	1000.9
9074.5 kPa	1000.9
9112.8 kPa	1001
9150.4 kPa	1001.1
9188.8 kPa	1001.1
9235.3 kPa	1001
9275.3 kPa	1001.2
9315.5 kPa	1001.1
9364.1 kPa	1001.1
9405.6 kPa	1001.2
9494 kPa	1001.2
9537.2 kPa	1001.2
9589.3 kPa	1001.2
9624.3 kPa	1001.3
9656.6 kPa	1001.3
9695.6 kPa	1001.3
9727.6 kPa	1001.5
9873 kPa	1001.5
9976.5 kPa	1001.6
10018 kPa	1001.6
10129 kPa	1001.8
10165 kPa	1001.7
10208 kPa	1001.8
10280 kPa	1001.7
10325 kPa	1001.8
10362 kPa	1001.9
10400 kPa	1001.9
10447 kPa	1001.9
10486 kPa	1001.9
10527 kPa	1002
10577 kPa	1001.8
10620 kPa	1002.1
10661 kPa	1002
10691 kPa	1002.1
10711 kPa	1002.1
10731 kPa	1002.2
10755 kPa	1002.1
10775 kPa	1002
10795 kPa	1002.1
10820 kPa	1002.2
10840 kPa	1002.2
10860 kPa	1002.2
10885 kPa	1002.2
10905 kPa	1002.2
10926 kPa	1002.2
10951 kPa	1002.2
10971 kPa	1002.3
10992 kPa	1002.2
11018 kPa	1002.3
11039 kPa	1002.2
11060 kPa	1002.4
11085 kPa	1002.4
11106 kPa	1002.3
11128 kPa	1002.4
11153 kPa	1002.4
11175 kPa	1002.3
11197 kPa	1002.4
11223 kPa	1002.5
11245 kPa	1002.5
11267 kPa	1002.4
11289 kPa	1002.5
11316 kPa	1002.5
11339 kPa	1002.5
11366 kPa	1002.7
11388 kPa	1002.6
11411 kPa	1002.6
11434 kPa	1002.6
11461 kPa	1002.6
11484 kPa	1002.6
11534 kPa	1002.6
11558 kPa	1002.6
11581 kPa	1002.6
11610 kPa	1002.5
11633 kPa	1002.7
11657 kPa	1002.6
11681 kPa	1002.7
11710 kPa	1002.7
11735 kPa	1002.8
11759 kPa	1002.7
11784 kPa	1002.8
11813 kPa	1002.8
11838 kPa	1002.8
11862 kPa	1002.9
11892 kPa	1002.9
11917 kPa	1003
11942 kPa	1002.8
11971 kPa	1003
11996 kPa	1003
12022 kPa	1002.9
12053 kPa	1003
12074 kPa	1003.1
12105 kPa	1003
12130 kPa	1003
12156 kPa	1003
12187 kPa	1003
12213 kPa	1003.1
12244 kPa	1003.1
12271 kPa	1003.1
12297 kPa	1003.2
12324 kPa	1003.2
12355 kPa	1003.2
12382 kPa	1003.4
12415 kPa	1003.3
12442 kPa	1003.1
12469 kPa	1003.2
12502 kPa	1003.3
12529 kPa	1003.4
12557 kPa	1003.4
12585 kPa	1003.4
12618 kPa	1003.2
12646 kPa	1003.4
12674 kPa	1003.4
12736 kPa	1003.4
12770 kPa	1003.5
12800 kPa	1003.3
12828 kPa	1003.6
12858 kPa	1003.5
12892 kPa	1003.5
12922 kPa	1003.7
12957 kPa	1003.7
12986 kPa	1003.6
13016 kPa	1003.7
13052 kPa	1003.6
13082 kPa	1003.6
13112 kPa	1003.7
13149 kPa	1003.7
13179 kPa	1003.7
13210 kPa	1003.7
13242 kPa	1003.9
13279 kPa	1003.8
13310 kPa	1003.9
13347 kPa	1003.9
13378 kPa	1003.7
13410 kPa	1003.9
13443 kPa	1004
13482 kPa	1003.9
13514 kPa	1004
13548 kPa	1004
13581 kPa	1004
13620 kPa	1004
13654 kPa	1004
13687 kPa	1004.2
13727 kPa	1004
13760 kPa	1004.1
13794 kPa	1004.2
13829 kPa	1004.2
13870 kPa	1004.3
13945 kPa	1004.2
13980 kPa	1004.2
14049 kPa	1004.4
14091 kPa	1004.3
14126 kPa	1004.4
14162 kPa	1004.3
14284 kPa	1004.4
14320 kPa	1004.4
14358 kPa	1004.5
14402 kPa	1004.5
14440 kPa	1004.6
14477 kPa	1004.6
14515 kPa	1004.6
14560 kPa	1004.7
14600 kPa	1004.6
14639 kPa	1004.7
14678 kPa	1004.6
14717 kPa	1004.7
14764 kPa	1004.7
14803 kPa	1004.7
14843 kPa	1004.8
14891 kPa	1004.9
14931 kPa	1004.9
14972 kPa	1005
15020 kPa	1004.9
15062 kPa	1004.9
15103 kPa	1005
15147 kPa	1005
15192 kPa	1005.1
15243 kPa	1005.1
15287 kPa	1005.1
15332 kPa	1005.1
15386 kPa	1005.2
15429 kPa	1005.1
15462 kPa	1005.2
15497 kPa	1005.2
15526 kPa	1005.2
15556 kPa	1005.3
15585 kPa	1005.3
15621 kPa	1005.2
15652 kPa	1005.4
15685 kPa	1005.4
15723 kPa	1005.4
15754 kPa	1005.5
15779 kPa	1005.4
15803 kPa	1005.4
15822 kPa	1005.5
15842 kPa	1005.5
15865 kPa	1005.6
15885 kPa	1005.5
15904 kPa	1005.6
